Usually Inhibition stands for the percentage by which the read-out fell short of the control. The low end stands for a response near the control, the high end for a response far below the control.

Assay [1] concerns A549. Put plainly: In vitro anticancer activity against human lung (A549) cell line. The conditions noted are these: for EC50: read-out: ED50 (the source's name). It is filed as functional.
For assay [2], the system named is SK-MEL-2. Nature of the assay: In vitro anticancer activity against human melanoma cancer (SK-MEL-2) cell line. The class given is functional.
The nature of assay [3]: In vitro anticancer activity against human ovarian cancer ([…]) cell line. It is filed as functional. The settings on record: read-out: ED50 (the source's name).
Assay [4] relates to PC-3. Nature of the assay: In vitro anticancer activity against human prostate (PC-3) cell line. The class given is functional. The settings on record: for EC50: read-out: ED50 (the source's name).
Assay [5] deals with U-87 MG. Put plainly: In vitro anticancer activity against human glioblastoma tumor cell line (U-87-MG). It is filed as functional, U-87MG ATCC. The conditions noted are these: for EC50: read-out: ED50 (the source's name).
Assay [6] has as its system KB-VIN. Put plainly: In vitro anticancer activity against human vincristine-resistant tumor cell line (KB-VIN). The settings on record: read-out: ED50 (the source's name).
The test system of assay [7] is MCF7. Put plainly: In vitro anticancer activity against human breast (MCF-7) cell line. The class given is functional. The conditions noted are these: for EC50: read-out: ED50 (the source's name).
Assay [8] in a line: In vitro anticancer activity against human epidermoid nasopharyngeal tumor cell line (KB). It is filed as functional. The settings on record: for EC50: read-out: ED50 (the source's name).
The subject of assay [9] is HCT-8. Put plainly: In vitro anticancer activity against human ileocecal tumor cell line (HCT-8). It is filed as functional. The conditions noted are these: for EC50: read-out: ED50 (the source's name).
The test system of assay [10] is KB-VIN. Put plainly: In vitro anticancer activity against human vincristine-resistant tumor cell line (KB-VIN).
Assay [11] relates to SK-MEL-2. Nature of the assay: In vitro anticancer activity against human melanoma cancer (SK-MEL-2) cell line; not active at 20 ug/mL. The class given is functional, cell-based.

Each structure is given as a SMILES string. Values after ≈ are worked out from the molar mass of the structure shown. Active and inactive are the calls of the source. No cut-off for these calls is given here.

On to `COc1ccc2c(c1)OC(C)=C(O)N2C=O`, for which the EC50 in assay [1] was 3.6 µg/mL (≈ 16.3 µM); in assay [2] (read-out: ED50 (the source's name)), greater than 5 µg/mL; in assay [3], 2.4 µg/mL (≈ 10.8 µM); in assay [4] it was 4.7 µg/mL (≈ 21.2 µM); in assay [5], greater than 5 µg/mL; in assay [6], 3.5 µg/mL (≈ 15.8 µM). In addition, the figures for the EC50 in assay [7], in assay [8] and in [9] were 4 µg/mL (≈ 18.1 µM), 4 µg/mL (≈ 18.1 µM) and 3.6 µg/mL (≈ 16.3 µM), respectively. For the same compound, the Inhibition in assay [2] is 30%; in assay [5], 36%.

As for `COC1=C(C)Oc2cc(OC)ccc2N1C=O`, the Inhibition is 36% in [1]; 20% in [10]; 37% in assay [4]; 19% in assay [5]; 49% in assay [7]; 22% in assay [8]. The Inhibition in assay [9] is on record as 39%. Further, the EC50 is greater than 20 µg/mL in assay [1]; 20 µg/mL (≈ 85 µM) in [3]; greater than 20 µg/mL in [4]; greater than 20 µg/mL in assay [5]; greater than 20 µg/mL in assay [6]; greater than 20 µg/mL in assay [7]. The EC50 in assay [8] and in [9] was greater than 20 µg/mL throughout. Moreover, the ED50 entry in assay [11] was “inactive”.

The values are drawn from ChEMBL document CHEMBL1136088, “Antitumor agents. Part 218: Cappamensin A, a new In vitro anticancer principle, from Capparis sikkimensis” (2003).
